Results published in ChEMBL document CHEMBL1151131, “Bioactivity of the essential oil of Bupleurum fruticosum” (1989).
Active and inactive are the calls of the source. The rule behind the calls is not given here.

How the values were obtained:
Rattus norvegicus [1] = test: Antiinflammatory activity against carrageenan-induced plantar edema in Wistar rat hind paw at 20 mg/kg, ip administered 1 hr before carrageenan challenge measured after 3 hrs; format: functional; conditions: route intraperitoneal
Rattus norvegicus [2] = test: Antiinflammatory activity against carrageenan-induced plantar edema in Wistar rat hind paw at 40 mg/kg, ip administered 1 hr before carrageenan challenge measured after 3 hrs; format: functional; conditions: route intraperitoneal
Rattus norvegicus [3] = test: Antiinflammatory activity against carrageenan-induced plantar edema in Wistar rat hind paw at 80 mg/kg, ip administered 1 hr before carrageenan challenge measured after 5 hrs; format: functional; conditions: route intraperitoneal
Rattus norvegicus [4] = test: Antiinflammatory activity against carrageenan-induced plantar edema in Wistar rat hind paw at 80 mg/kg, ip administered 1 hr before carrageenan challenge measured after 3 hrs; format: functional; conditions: route intraperitoneal
Rattus norvegicus [5] = test: Antiinflammatory activity against carrageenan-induced plantar edema in Wistar rat hind paw at 80 mg/kg, ip administered 1 hr before carrageenan challenge measured after 1 hrs; format: functional; conditions: route intraperitoneal
Rattus norvegicus [6] = test: Antiinflammatory activity against carrageenan-induced plantar edema in Wistar rat hind paw at 20 mg/kg, ip administered 1 hr before carrageenan challenge measured after 1 hrs; format: functional; conditions: route intraperitoneal
Rattus norvegicus [7] = test: Antiinflammatory activity against carrageenan-induced plantar edema in Wistar rat hind paw at 40 mg/kg, ip administered 1 hr before carrageenan challenge measured after 1 hrs; format: functional; conditions: route intraperitoneal
Rattus norvegicus [8] = test: Antiinflammatory activity against carrageenan-induced plantar edema in Wistar rat hind paw at 40 mg/kg, ip administered 1 hr before carrageenan challenge measured after 5 hrs; format: functional; conditions: route intraperitoneal
Rattus norvegicus [9] = test: Antiinflammatory activity against carrageenan-induced plantar edema in Wistar rat hind paw at 20 mg/kg, ip administered 1 hr before carrageenan challenge measured after 5 hrs; format: functional; conditions: route intraperitoneal
Uterus [10] = test: Antispasmodic activity against oxytocin-induced contraction in Wistar rat uterus at 1.1 ug/ml; format: functional, tissue-based
Uterus [11] = test: Antispasmodic activity against oxytocin-induced contraction in Wistar rat uterus at 2.2 ug/ml; format: functional, tissue-based
Rattus norvegicus [12] = test: Antiinflammatory activity against carrageenan-induced plantar edema in Wistar rat hind paw at 33 mg/kg, ip administered 1 hr before carrageenan challenge measured after 3 hrs; format: functional; conditions: route intraperitoneal
Rattus norvegicus [13] = test: Antiinflammatory activity against carrageenan-induced plantar edema in Wistar rat hind paw at 66 mg/kg, ip administered 1 hr before carrageenan challenge measured after 3 hrs; format: functional; conditions: route intraperitoneal

| Structure (SMILES) | Activity (Rattus norvegicus [1]) | Activity (Rattus norvegicus [2]) | Activity (Rattus norvegicus [3]) | Activity (Rattus norvegicus [4]) | Activity (Rattus norvegicus [5]) | Activity (Rattus norvegicus [6]) | Activity (Rattus norvegicus [7]) | Activity (Rattus norvegicus [8]) | Activity (Rattus norvegicus [9]) | Activity (Uterus [10]) | Activity (Uterus [11]) | Activity (Rattus norvegicus [12]) | Activity (Rattus norvegicus [13]) |
| --- | --- | --- | --- | --- | --- | --- | --- | --- | --- | --- | --- | --- | --- |
| CC1=CCC2CC1C2(C)C (stereo not drawn) [ALPHA-PINENE] | 8.9% | 21% | 13.2% | 26.2% | 19% | 5.6% | 20.4% | 14% | -1.6% | – | – | – | – |
| C=C1CCC2CC1C2(C)C (stereo not drawn) [BETA-PINENE] | 15.1% | 19.2% | 31.9% | 32.2% | 8.7% | 20.5% | 27.5% | 14.9% | 16.7% | – | – | – | – |
| CC1=CCC2C(C1)C2(C)C (configuration not stated) [CARENE] | – | – | – | – | – | – | – | – | – | Active | Active | 50.3% | 77% |
